Source: US4500731A, “Derivatives of 4-phenyl-4-oxobuten-2-oic acid, pharmaceutical compositions containing them, and therapeutic uses for them” (Roussel Uclaf, priority 1981, dated 1985)

Experiments:
[1] = acute toxicity (LD50); conditions: mouse, in vivo, po; orally in mice
Method: (3) Determination of acute toxicity
The LD50 was evaluated after administration of the products orally in mice.

[2] = test system: gastric secretions; experiment: anti-gastric secretion activity (Shay, pylorus-ligated rats), total acidity of gastric juice; format: in vivo, rat (male); conditions: 10 mg/kg, intraduodenally, 3 hours
Method: (1) Determination of the anti-gastric secretion activity
The technique used is described by H. SHAY et al. in Gastroenterology, 5, 43, (1945).
Male rats were used weighing about 200 g (10 animals per lot) which had been without food for 48 hours but were allowed an 8% glucose solution ad libitum. After the rats were slightly anesthetized with ether, the pylorus of each was ligated. After the end of the operation, the compound to be tested was administered intraduodenally in different doses, or in the case of the control animals, a 0.5% solution of carboxymethylcellulose was administered intraduodenally, after which the abdominal incision was sutured.
Three hours later, the animals were sacrificed and their stomachs removed, after ligating the esophagus. The gastric juice was removed and centrifuged. The volume of gastric juice was then determined and the total acidity was established by titrating a 100 μl sample of gastric juice to a pH of 7 by means of 1/10 N aqueous sodium hydroxide solution.
The percentages of variation in total acidity between gastric secretions of the test and control animals were calculated, with the results appearing below.

[3] = test system: stress ulcers in the stomachs of rats; experiment: anti-ulcer activity, stress ulcer (stress and cold); format: in vivo, rat (female); conditions: 10 mg/kg, by esophageal tube
Method: (2) Determination of anti-ulcer activity
The technique consists in inducing ulcers in the stomachs of rats by stress (stress and cold). The technique used is described by E. C. SENAY and R. J. LEVINE, Proc. Soc. Exp. Biol., 124, 1221 (1967).
Female rats of 150 g were used (5 animals per lot) which have fasted for 48 hours with water ad libitum and glucose solution for 8 hours. The animals were given the compound being tested, or 0.5% solution of carboxymethylcellulose for the control animals, by esophageal tube. Two hours later the animals were bundled in a jacket of netting. Their paws were tied and the entire unit was placed in a refrigerator at 8° C. for two hours. The rats were released and killed with ether.
Their stomachs were opened along the greater curvature and examined with a binocular magnifier. The seriousness of the lesions was rated from 0 to 3 for each stomach.
For each lot of the rats, the average intensity of the ulcerations was determined. The degree of ulceration for the test animals was determined and compared with the control animals for each lot.

COc1cc(C(=O)/C=C/C(=O)O)ccc1O [Example 1, (E) 4-(3-methoxy-4-hydroxyphenyl)-4-oxobuten-2-oic acid]
LD50 [1]: 1000 mg/kg
Anti-secretion activity: Acid conc. (% variation as compared with the controls) [2]: -90%
Anti-ulcer activity: Ulceration (% variation as compared with the controls) [3]: -89%

O=C(O)/C=C/C(=O)c1ccc2c(c1)OCCO2 [Example 2, (E) 4-(2,3-dihydrobenzodioxine-6-yl)-4-oxobuten-2-oic acid]
LD50 [1]: 750 mg/kg
Anti-secretion activity: Acid conc. (% variation as compared with the controls) [2]: -41%
Anti-ulcer activity: Ulceration (% variation as compared with the controls) [3]: -33%
